Test results from patent publication US11382328B2, “Rapid drug discovery methods for pathogen inactivation” (priority 2019, dated 2022).

Test system: E. coli strain W3110
Assay: Synergy assays: Biolog chemical sensitivity panels with Group IB metal, coefficient of drug interaction (CDI) from relative growth
Format: cell-based
Details: for CDI (coefficient of drug interaction), copper mixed with biocide: Copper (mM) section
[1] = 1st of 3 copper concentrations (value not shown), 4th of four biocide concentrations
[2] = 2nd of 3 copper concentrations (value not shown), 4th of four biocide concentrations
[3] = 3rd of 3 copper concentrations (value not shown), 4th of four biocide concentrations
[4] = Gold section of Table 5, first of three gold concentrations (μM, value not given), biocide concentration 4 of 4
[5] = Gold section of Table 5, second of three gold concentrations (μM, value not given), biocide concentration 4 of 4
[6] = Gold section of Table 5, third of three gold concentrations (μM, value not given), biocide concentration 4 of 4
[7] = Silver 0.5 μM, 4th of four biocide concentrations, E. coli
[8] = Silver 1.0 μM, 4th of four biocide concentrations, E. coli
[9] = Silver 5.0 μM, 4th of four biocide concentrations, E. coli
[10] = 1st of 3 copper concentrations (value not shown), 1st of four biocide concentrations
[11] = 1st of 3 copper concentrations (value not shown), 2nd of four biocide concentrations
[12] = 1st of 3 copper concentrations (value not shown), 3rd of four biocide concentrations
[13] = 2nd of 3 copper concentrations (value not shown), 1st of four biocide concentrations
[14] = 2nd of 3 copper concentrations (value not shown), 2nd of four biocide concentrations
[15] = 2nd of 3 copper concentrations (value not shown), 3rd of four biocide concentrations
[16] = 3rd of 3 copper concentrations (value not shown), 1st of four biocide concentrations
[17] = 3rd of 3 copper concentrations (value not shown), 2nd of four biocide concentrations
[18] = 3rd of 3 copper concentrations (value not shown), 3rd of four biocide concentrations
[19] = Gold section of Table 5, first of three gold concentrations (μM, value not given), biocide concentration 1 of 4
[20] = Gold section of Table 5, first of three gold concentrations (μM, value not given), biocide concentration 2 of 4
[21] = Gold section of Table 5, first of three gold concentrations (μM, value not given), biocide concentration 3 of 4
[22] = Gold section of Table 5, second of three gold concentrations (μM, value not given), biocide concentration 1 of 4
[23] = Gold section of Table 5, second of three gold concentrations (μM, value not given), biocide concentration 2 of 4
[24] = Gold section of Table 5, second of three gold concentrations (μM, value not given), biocide concentration 3 of 4
[25] = Gold section of Table 5, third of three gold concentrations (μM, value not given), biocide concentration 2 of 4
[26] = Gold section of Table 5, third of three gold concentrations (μM, value not given), biocide concentration 3 of 4
[27] = Silver 0.5 μM, biocide concentration 1 of 4
[28] = Silver 0.5 μM, biocide concentration 2 of 4
[29] = Silver 0.5 μM, biocide concentration 3 of 4
[30] = Silver 0.5 μM, biocide concentration 4 of 4
[31] = Silver 1.0 μM, biocide concentration 2 of 4
[32] = Silver 1.0 μM, biocide concentration 3 of 4
[33] = Silver 1.0 μM, biocide concentration 4 of 4
[34] = Silver 5.0 μM, biocide concentration 1 of 4
[35] = Silver 5.0 μM, biocide concentration 2 of 4
[36] = Silver 5.0 μM, biocide concentration 3 of 4
[37] = Silver 5.0 μM, biocide concentration 4 of 4
[38] = Gold 5 μM, biocide concentration 4 of 4, E. coli
[39] = Gold 25 μM, biocide concentration 4 of 4, E. coli
[40] = Silver 0.5 μM, 3rd of four biocide concentrations, E. coli
[41] = Silver 1.0 μM, 3rd of four biocide concentrations, E. coli
[42] = Silver 5.0 μM, 3rd of four biocide concentrations, E. coli
[43] = […], biocide concentration 4 of 4, E. coli
[44] = Copper 0.1 mM, biocide concentration 3 of 4
[45] = Copper 0.1 mM, biocide concentration 4 of 4
[46] = Copper 0.5 mM, biocide concentration 3 of 4
[47] = Copper 0.5 mM, biocide concentration 4 of 4
[48] = Copper 1.0 mM, biocide concentration 3 of 4
[49] = Copper 1.0 mM, biocide concentration 4 of 4
[50] = Gold 50 μM, biocide concentration 4 of 4, E. coli

Compound: CC(C)c1nc2nc(N)nc(N)c2nc1C(C)C [2,4-Diamino-6,7-diisopropylpteridine]
- CDI (coefficient of drug interaction), copper mixed with biocide [1]: Tox
- CDI (coefficient of drug interaction), copper mixed with biocide [2]: Tox
- CDI (coefficient of drug interaction), copper mixed with biocide [3]: Tox
- CDI (coefficient of drug interaction) [4]: Tox
- CDI (coefficient of drug interaction) [5]: Tox
- CDI (coefficient of drug interaction) [6]: Tox
- CDI (coefficient of drug interaction), silver + biocide [7]: Tox
- CDI (coefficient of drug interaction), silver + biocide [8]: Tox
- CDI (coefficient of drug interaction), silver + biocide [9]: Tox

Compound: gentamicin
- CDI (coefficient of drug interaction), copper mixed with biocide [10]: 0.89
- CDI (coefficient of drug interaction), copper mixed with biocide [11]: 0.87
- CDI (coefficient of drug interaction), copper mixed with biocide [12]: 0.79
- CDI (coefficient of drug interaction), copper mixed with biocide [1]: 0.86
- CDI (coefficient of drug interaction), copper mixed with biocide [13]: 0.78
- CDI (coefficient of drug interaction), copper mixed with biocide [14]: 0.80
- CDI (coefficient of drug interaction), copper mixed with biocide [15]: 0.74
- CDI (coefficient of drug interaction), copper mixed with biocide [2]: 1.54
- CDI (coefficient of drug interaction), copper mixed with biocide [16]: 0.61
- CDI (coefficient of drug interaction), copper mixed with biocide [17]: 0.59
- CDI (coefficient of drug interaction), copper mixed with biocide [18]: 0.58
- CDI (coefficient of drug interaction), copper mixed with biocide [3]: 0.61
- CDI (coefficient of drug interaction) [19]: 0.97
- CDI (coefficient of drug interaction) [20]: 1.00
- CDI (coefficient of drug interaction) [21]: 0.99
- CDI (coefficient of drug interaction) [22]: 0.97
- CDI (coefficient of drug interaction) [23]: 0.99
- CDI (coefficient of drug interaction) [24]: 1.00
- CDI (coefficient of drug interaction) [5]: 1.00
- CDI (coefficient of drug interaction) [25]: 0.97
- CDI (coefficient of drug interaction) [26]: 1.00
- CDI [27]: 0.87
- CDI [28]: 0.86
- CDI [29]: 0.81
- CDI [30]: 0.79
- CDI [31]: 0.98
- CDI [32]: 0.42
- CDI [33]: 0.38
- CDI [34]: 1.00
- CDI [35]: 0.82
- CDI [36]: 0.74
- CDI [37]: 0.34

Compound: Oc1ccccc1-c1ccccc1 [2-phenylphenol]
- CDI (coefficient of drug interaction), copper mixed with biocide [1]: Tox
- CDI (coefficient of drug interaction), copper mixed with biocide [2]: Tox
- CDI (coefficient of drug interaction), copper mixed with biocide [3]: Tox
- CDI (coefficient of drug interaction) [38]: Tox
- CDI (coefficient of drug interaction) [39]: Tox
- CDI (coefficient of drug interaction), silver + biocide [40]: Tox
- CDI (coefficient of drug interaction), silver + biocide [7]: Tox
- CDI (coefficient of drug interaction), silver + biocide [41]: Tox
- CDI (coefficient of drug interaction), silver + biocide [8]: Tox
- CDI (coefficient of drug interaction), silver + biocide [42]: Tox
- CDI (coefficient of drug interaction), silver + biocide [9]: Tox
- CDI (coefficient of drug interaction) [43]: Tox

Compound: CCCCc1ccc(C(=O)O)nc1 [fusaric acid]
- CDI [44]: Tox
- CDI [45]: Tox
- CDI [46]: Tox
- CDI [47]: Tox
- CDI [48]: Tox
- CDI [49]: Tox
- CDI (coefficient of drug interaction) (Gold 5 μM, biocide concentration 3 of 4, E. coli): Tox
- CDI (coefficient of drug interaction) [38]: Tox
- CDI (coefficient of drug interaction) (Gold 25 μM, biocide concentration 3 of 4, E. coli): Tox
- CDI (coefficient of drug interaction) [39]: Tox
- CDI (coefficient of drug interaction), silver + biocide (Silver 0.5 μM, 2nd of four biocide concentrations, E. coli): Tox
- CDI (coefficient of drug interaction), silver + biocide [40]: Tox
- CDI (coefficient of drug interaction), silver + biocide [7]: Tox
- CDI (coefficient of drug interaction), silver + biocide (Silver 1.0 μM, 2nd of four biocide concentrations, E. coli): Tox
- CDI (coefficient of drug interaction), silver + biocide [41]: Tox
- CDI (coefficient of drug interaction), silver + biocide [8]: Tox
- CDI (coefficient of drug interaction), silver + biocide (Silver 5.0 μM, 2nd of four biocide concentrations, E. coli): Tox
- CDI (coefficient of drug interaction), silver + biocide [42]: Tox
- CDI (coefficient of drug interaction), silver + biocide [9]: Tox
- CDI (coefficient of drug interaction) ([…], biocide concentration 3 of 4, E. coli): Tox
- CDI (coefficient of drug interaction) [43]: Tox

Compound: COc1ccc(CO)cc1OC [3,4-dimethoxybenzyl alcohol]
- CDI (coefficient of drug interaction), copper mixed with biocide [1]: Tox
- CDI (coefficient of drug interaction), copper mixed with biocide [2]: Tox
- CDI (coefficient of drug interaction), copper mixed with biocide [3]: Tox
- CDI (coefficient of drug interaction) [4]: Tox
- CDI (coefficient of drug interaction) [5]: Tox
- CDI (coefficient of drug interaction) [6]: Tox
- CDI [30]: Tox
- CDI [33]: Tox
- CDI [37]: Tox

Compound: CN(C)C(=O)/N=N/C(=O)N(C)C [diamide]
- CDI (coefficient of drug interaction), copper mixed with biocide [10]: 1.02
- CDI (coefficient of drug interaction), copper mixed with biocide [11]: 0.98
- CDI (coefficient of drug interaction), copper mixed with biocide [12]: 0.96
- CDI (coefficient of drug interaction), copper mixed with biocide [1]: 0.99
- CDI (coefficient of drug interaction), copper mixed with biocide [13]: 0.78
- CDI (coefficient of drug interaction), copper mixed with biocide [14]: 0.72
- CDI (coefficient of drug interaction), copper mixed with biocide [15]: Tox
- CDI (coefficient of drug interaction), copper mixed with biocide [2]: Tox
- CDI (coefficient of drug interaction), copper mixed with biocide [16]: 0.52
- CDI (coefficient of drug interaction), copper mixed with biocide [17]: 0.51
- CDI (coefficient of drug interaction), copper mixed with biocide [18]: 0.52
- CDI (coefficient of drug interaction), copper mixed with biocide [3]: 0.56
- CDI (coefficient of drug interaction) [19]: 0.99
- CDI (coefficient of drug interaction) [20]: 0.86
- CDI (coefficient of drug interaction) [21]: Tox
- CDI (coefficient of drug interaction) [4]: Tox
- CDI (coefficient of drug interaction) [22]: 0.98
- CDI (coefficient of drug interaction) [23]: 0.89
- CDI (coefficient of drug interaction) [24]: Tox
- CDI (coefficient of drug interaction) [5]: Tox
- CDI (coefficient of drug interaction) (Gold section of Table 5, third of three gold concentrations (μM, value not given), biocide concentration 1 of 4): 0.98
- CDI (coefficient of drug interaction) [25]: 0.93
- CDI (coefficient of drug interaction) [26]: Tox
- CDI (coefficient of drug interaction) [6]: Tox
- CDI [27]: 1.19
- CDI [28]: 1.07
- CDI [29]: Tox
- CDI [30]: Tox
- CDI (Silver 1.0 μM, biocide concentration 1 of 4): 1.01
- CDI [31]: 0.90
- CDI [32]: Tox
- CDI [33]: Tox
- CDI [34]: 0.97
- CDI [35]: 0.40
- CDI [36]: Tox
- CDI [37]: Tox

Compound: O=c1cc(O)c2ccccc2o1 [4-Hydroxy-coumarin]
- CDI (coefficient of drug interaction), copper mixed with biocide [1]: Tox
- CDI (coefficient of drug interaction), copper mixed with biocide [3]: Tox
- CDI (coefficient of drug interaction) [38]: Tox
- CDI (coefficient of drug interaction) [39]: Tox
- CDI (coefficient of drug interaction), silver + biocide [7]: Tox
- CDI (coefficient of drug interaction), silver + biocide [8]: Tox
- CDI (coefficient of drug interaction), silver + biocide [9]: Tox
- CDI (coefficient of drug interaction) [43]: Tox

Compound: CCCCCCCCCCCCNC(=N)N [dodine]
- CDI (coefficient of drug interaction), copper mixed with biocide [1]: Tox
- CDI (coefficient of drug interaction), copper mixed with biocide [15]: Tox
- CDI (coefficient of drug interaction), copper mixed with biocide [2]: Tox
- CDI (coefficient of drug interaction), copper mixed with biocide [3]: Tox
- CDI (coefficient of drug interaction) [4]: Tox
- CDI (coefficient of drug interaction) [5]: Tox
- CDI (coefficient of drug interaction) [6]: Tox
- CDI (coefficient of drug interaction), silver + biocide [40]: Tox
- CDI (coefficient of drug interaction), silver + biocide [7]: Tox
- CDI (coefficient of drug interaction), silver + biocide [41]: Tox
- CDI (coefficient of drug interaction), silver + biocide [8]: Tox
- CDI (coefficient of drug interaction), silver + biocide [42]: Tox
- CDI (coefficient of drug interaction), silver + biocide [9]: Tox

Compound: Cc1ccc2c(Cl)cc(Cl)c(O)c2n1 [5,7-dichloro-8-hydroxyquinaldine]
- CDI (coefficient of drug interaction), silver + biocide [7]: Tox
- CDI (coefficient of drug interaction), silver + biocide [8]: Tox
- CDI (coefficient of drug interaction), silver + biocide [9]: Tox

Compound: c1cnc2c(c1)ccc1cccnc12 [1,10-phenanthroline]
- CDI [44]: Tox
- CDI [45]: Tox
- CDI [46]: Tox
- CDI [47]: Tox
- CDI [48]: Tox
- CDI [49]: Tox
- CDI (coefficient of drug interaction) [38]: Tox
- CDI (coefficient of drug interaction) [39]: Tox
- CDI (coefficient of drug interaction) [50]: Tox
- CDI (coefficient of drug interaction), silver + biocide [40]: Tox
- CDI (coefficient of drug interaction), silver + biocide [7]: Tox
- CDI (coefficient of drug interaction), silver + biocide [41]: Tox
- CDI (coefficient of drug interaction), silver + biocide [8]: Tox
- CDI (coefficient of drug interaction), silver + biocide [42]: Tox
- CDI (coefficient of drug interaction), silver + biocide [9]: Tox

Compound: CCn1cc(C(=O)O)c(=O)c2cc(F)c(N3CCNC(C)C3)c(F)c21 (stereo not drawn) [lomefloxacin]
- CDI (coefficient of drug interaction) [50]: Tox
